Data from US20260200947A1, “FUSED CYCLIC COMPOUNDS AND USE THEREOF” (Jacobio Pharmaceuticals Co., Ltd., priority 2022, published 2026).
Read-outs that look alike come from different tables or passages of the source.

What was measured:
GDP-KRAS G12V [1] = molecular target: T1, GDP-KRAS G12V (Homo sapiens, UniProt P01116, G12V); assay: SOS1 catalyzed nucleotide exchange assay, GDP-KRAS G12V; conditions: read-out: Biochemical assays, IC50, KRAS G12V GDP, GDP form K-Ras G12V, TR-FRET
GppNp-KRAS G12V [2] = molecular target: T2, GppNp-KRAS G12V (Homo sapiens, UniProt P01116, G12V); assay: GTP-K-Ras and cRAF interaction assay, GppNp-KRAS G12V; conditions: read-out: Biochemical assays, IC50, KRAS G12V GppNp; GppNp-loaded K-Ras G12V, cRAF RBD interaction, HTRF
GDP-KRAS G12D [3] = molecular target: T3, GDP-KRAS G12D (Homo sapiens, UniProt P01116, G12D); assay: SOS1 catalyzed nucleotide exchange assay, GDP-KRAS G12D; conditions: read-out: Biochemical assays, IC50, KRAS G12D GDP, GDP form K-Ras G12D, TR-FRET
GppNp-KRAS G12D [4] = molecular target: T4, GppNp-KRAS G12D (Homo sapiens, UniProt P01116, G12D); assay: GTP-K-Ras and cRAF interaction assay, GppNp-KRAS G12D; conditions: read-out: Biochemical assays, IC50, KRAS G12D GppNp; GppNp-loaded K-Ras G12D, cRAF RBD interaction, HTRF
[5] = system: Capan-2 cells (K-Ras G12V)
Experimental: (§1) Each of cells in culture medium was seeded in 96-well plates at density indicated in Table 4 and put in a cell incubator to incubate overnight. The next day, the culture medium was removed and the compound diluted in assay medium was added in each well. […] 10 μL of cell lysates from the 96-well plates were transferred to a 384-well plate (Greiner) containing 2.5 μL/well HTRF® pre-mixed antibodies (Cisbio 64AERPEH). The plate was incubated 4 hours at 25° C. and read HTRF signals on Tecan Spark multimode microplate reader. The data were analyzed using a 4-parameter logistic model to calculate IC50 values.

[6] = system: AsPC-1 cells (K-Ras G12D)
Experimental: (§2) Each of cells in culture medium was plated in TC-treated 96-well plates at a density indicated in Table 4 and incubated in a cell incubator overnight. The next day, each of compounds was diluted in culture medium and added to the plates. After 6 days incubation in cell incubator, the cell viability was detected by CellTiter-Glo® Cell Viability Assay kit (Promega).

SW620 cells (K-Ras G12V) [7] = system: SW620 cells (K-Ras G12V)
Experimental: as §2

SW620 cells (K-Ras G12V) [8] = assay: Phospho-ERK1/2(THR202/TYR204) HTRF assay, SW620; assay type: cell-based; conditions: read-out: pERK, IC50, SW620
Experimental: as §1

[9] = Mouse pharmacokinetic study; assay type: in vivo; conditions: Balb/c mouse (female); for Cl_obs / AUC(0-t) / Cmax / AUC0-24 h: plasma; for AUC(0-t): read-out: AUC0-24 h; for F: 10 mg/kg po vs 3 mg/kg iv
Experimental: The purpose of this study was to evaluate the pharmacokinetic properties of compounds in Balb/c mouse (female) following single dose administration. Six mice were needed for each compound and the six mice were divided into two groups (n=3/group), group A and group B. Mice in group A were treated with a single 3 mg/kg dose of compound (iv). Mice in group B were treated with a single 10 mg/kg dose of compound (po). Foreach mouse in group A, blood samples were collected at the time point of 0.083 h 0.5 h, 1 h, 2 h, 4 h, 8 h and 24 h post-dose. For each mouse in group B, blood samples were collected at the time point of 0.25 h, 0.5 h, 1 h, 2 h, 4 h, 8 h and 24 h post-dose. Blood samples were placed on ice until centrifugation to obtain plasma samples. The plasma samples were stored at −80° C. until analysis. The concentration of compound in plasma samples was determined using a LC-MS/MS method.

GDP-KRAS G12V [10] = molecular target: T1, GDP-KRAS G12V; assay: biochemical
GppNp-KRAS G12V [11] = molecular target: T2, GppNp-KRAS G12V; assay: biochemical
GDP-KRAS G12D [12] = molecular target: T3, GDP-KRAS G12D; assay: biochemical
GppNp-KRAS G12D [13] = molecular target: T4, GppNp-KRAS G12D; assay: biochemical
AGS cells (K-Ras G12D) [14] = system: AGS cells (K-Ras G12D)
Experimental: as §1

AGS cells (K-Ras G12D) [15] = system: AGS cells (K-Ras G12D); remark: listed apart in the source
Experimental: as §2

[16] = Homo sapiens, SW-620, 2 hours incubation

T4 sequence (P01116 1-169 isoform P01116-2 G12D): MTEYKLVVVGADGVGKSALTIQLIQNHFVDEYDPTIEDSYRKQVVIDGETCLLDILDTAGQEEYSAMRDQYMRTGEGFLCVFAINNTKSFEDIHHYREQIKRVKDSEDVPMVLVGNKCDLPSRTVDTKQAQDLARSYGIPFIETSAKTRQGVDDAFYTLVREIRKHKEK
T3 sequence (P01116 1-169 isoform P01116-2 G12D): as above
T2 sequence (P01116 1-169 isoform P01116-2 G12V): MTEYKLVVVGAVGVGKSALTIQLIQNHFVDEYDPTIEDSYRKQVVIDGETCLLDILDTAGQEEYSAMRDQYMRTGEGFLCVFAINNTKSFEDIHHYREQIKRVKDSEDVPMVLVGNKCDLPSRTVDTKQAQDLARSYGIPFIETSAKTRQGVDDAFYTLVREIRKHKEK
T1 sequence (P01116 1-169 isoform P01116-2 G12V): as above

Row | SMILES | IC50 (GDP-KRAS G12V [1]) [nM] | IC50 (GppNp-KRAS G12V [2]) [nM] | IC50 (GDP-KRAS G12D [3]) [nM] | IC50 (GppNp-KRAS G12D [4]) [nM] | IC50 [5] [nM] | IC50 [6] [nM] | IC50 (SW620 cells (K-Ras G12V) [7]) [nM] | other results
1 | C#Cc1c(F)ccc2cc(N)cc(-c3nc4c5c(nc(OC[C@@]67CCCN6C[C@H](F)C7)nc5c3F)N3CCCC[C@@H](Cl)[C@@H]3N4C)c12 [Compound 62A] | 389 | > 1000 | 703 | > 1000 | – | – | – | –
2 | C#Cc1c(F)ccc2cc(N)cc(-c3nc4c5c(nc(OCC67CC(=C)CN6CC(OC)C7)nc5c3F)N3CCCOCC3N4C)c12 (stereo not shown) [Compound 169] | 3.33 | 245 | 1.67 | 164 | 0.778 | 93.6 | 15.2 | –
3 | C#Cc1c(F)ccc2cc(N)cc(-c3nc4c5c(nc(OC[C@@]67CCCN6C[C@H](F)C7)nc5c3F)N3CCCOC[C@H]3CO4)c12 [Compound 1] | – | – | – | – | 6.25 | 102 | 9.37 | IC50 (SW620 cells (K-Ras G12V) [8]; [16]): 4.43 nM; Cl_obs ([9]; 3 mg/kg, iv): 6.33 mL/min/kg; AUC(0-t) ([9]; 3 mg/kg, iv): 7990 ng·h/mL; F [9]: 17.2%; AUC(0-t) ([9]; 10 mg/kg, po): 4590 ng·h/mL; Cmax ([9]; 10 mg/kg, po, read-out: Cmax): 1140 ng/mL
4 | C#Cc1c(F)ccc2cc(N)cc(-c3nc4c5c(nc(OCC67CCCN6CC(F)C7)nc5c3F)N3C(C#N)CCCCC3N4C)c12 (stereo not shown) [Compound 168B] | 631 | > 1000 | 503 | > 1000 | – | – | – | –
5 | C#Cc1c(F)ccc2cc(N)cc(-c3nc4c5c(nc(OC[C@@]67CCCN6C[C@H](F)C7)nc5c3F)N3CCCOCC3N4)c12 (stereo partly shown) [Compound 113] | – | – | – | – | – | 587 | 45.4 | IC50 (GDP-KRAS G12V [10]): 3.81 nM; IC50 (GppNp-KRAS G12V [11]): 513 nM; IC50 (GDP-KRAS G12D [12]): 4.62 nM; IC50 (GppNp-KRAS G12D [13]): 623 nM; IC50 (SW620 cells (K-Ras G12V) [8]; [16]): 21.4 nM; IC50 (AGS cells (K-Ras G12D) [14]): 33.6 nM; IC50 (AGS cells (K-Ras G12D) [15]): 35.1 nM
6 | C#Cc1c(F)ccc2cc(N)cc(-c3nc4c5c(nc(OCC67CCCN6CC(F)C7)nc5c3F)N3CCCCC(F)C3N4C)c12 (stereo not shown) [Compound 40B] | 7.01 | 705 | 1.55 | 162 | – | – | – | –
7 | N#Cc1c(N)sc2c(F)ccc(-c3c(Cl)c4c5c(nc(OCC67CCCN6CC(F)C7)nc5c3F)N3CCCOCC3CO4)c12 (single isomer, unassigned) [Compound 66B] | 0.924 | 8.62 | 0.983 | 4.06 | 1.94 | 5.91 | 2.22 | AUC0-24 h ([9]; 3 mg/kg, iv): 8951 ng·h/mL; Cl_obs ([9]; 3 mg/kg, iv): 5.77 mL/min/kg; F [9]: 10.8%; AUC0-24 h ([9]; 10 mg/kg, po): 3217 ng·h/mL; Cmax ([9]; 10 mg/kg, po): 1175 ng/mL
8 | C#Cc1c(F)ccc2cc(N)cc(-c3nc4c5c(nc(OC[C@@]67CCCN6C[C@H](F)C7)nc5c3F)N3CCCCC[C@@H]3CO4)c12 [Compound 27A] | 65.1 | > 1000 | 47.8 | > 1000 | – | – | – | –
9 | CSc1cccc2cc(O)cc(-c3nc4c5c(nc(OC[C@@]67CCCN6C[C@H](F)C7)nc5c3F)N3CCCOC[C@H]3N4C)c12 [Compound 20] | – | – | – | – | 10.3 | 110 | 24.4 | IC50 (AGS cells (K-Ras G12D) [15]): 22.1 nM
10 | C#Cc1c(F)ccc2cc(N)cc(-c3c(Cl)c4c5c(nc(OCC67CCCN6CC(F)C7)nc5c3F)N3CCCOCC3CO4)c12 (single isomer, unassigned) [Compound 11B] | 3.92 | 311 | 5.69 | 233 | – | 806 | 117 | IC50 (SW620 cells (K-Ras G12V) [8]; 2 hours incubation): 53.5 nM
